PubChem BioAssay (NCI)
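In this assay, cells in 96-well plates receive the compound at five concentrations for 48 hours. Endpoints are linearly interpolated between the surrounding concentrations. Definition used: TGI = concentration required for complete inhibition of growth.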

How the values were obtained:
Test in all cases: NCI anticancer screen, dose series, 48 h
IGROV1 ovarian = tested on: IGROV1 ovarian
786-0 renal = tested on: 786-0 renal
KM12 colon = tested on: KM12 colon
XF 498 CNS = tested on: XF 498 CNS
KM20L2 colon = tested on: KM20L2 colon
SN12C renal = tested on: SN12C renal
HT29 colon = tested on: HT29 colon
SK-MEL-28 melanoma = tested on: SK-MEL-28 melanoma
A549 NSCLC = tested on: A549 NSCLC
SF-268 CNS = tested on: SF-268 CNS
MALME-3M melanoma = tested on: MALME-3M melanoma
NCI-H23 lung = tested on: NCI-H23 lung
SF-295 CNS = tested on: SF-295 CNS
OVCAR-4 ovarian = tested on: OVCAR-4 ovarian
SF-539 CNS = tested on: SF-539 CNS
NCI-H460 lung = tested on: NCI-H460 lung
DMS 273 small cell lung = tested on: DMS 273 small cell lung
OVCAR-8 ovarian = tested on: OVCAR-8 ovarian
CCRF-CEM leukemia = tested on: CCRF-CEM leukemia
COLO 205 colon = tested on: COLO 205 colon
HCT-116 colon = tested on: HCT-116 colon
CAKI-1 renal = tested on: CAKI-1 renal
LOX IMVI melanoma = tested on: LOX IMVI melanoma
OVCAR-3 ovarian = tested on: OVCAR-3 ovarian
RXF 393 renal = tested on: RXF 393 renal
SK-OV-3 ovarian = tested on: SK-OV-3 ovarian
HL-60(TB) leukemia = tested on: HL-60(TB) leukemia
HOP-62 NSCLC = tested on: HOP-62 NSCLC
LXFL 529 NSCLC = tested on: LXFL 529 NSCLC
K-562 leukemia = tested on: K-562 leukemia
RPMI-8226 leukemia = tested on: RPMI-8226 leukemia
UO-31 renal = tested on: UO-31 renal
SR leukemia = tested on: SR leukemia
SW-620 colon = tested on: SW-620 colon
NCI-H522 lung = tested on: NCI-H522 lung
M19-MEL melanoma = tested on: M19-MEL melanoma
HOP-18 NSCLC = tested on: HOP-18 NSCLC
M14 melanoma = tested on: M14 melanoma
DMS 114 small cell lung = tested on: DMS 114 small cell lung
DLD-1 colon = tested on: DLD-1 colon
MOLT-4 leukemia = tested on: MOLT-4 leukemia
UACC-62 melanoma = tested on: UACC-62 melanoma
NCI-H226 lung = tested on: NCI-H226 lung
SNB-75 CNS = tested on: SNB-75 CNS
SK-MEL-2 melanoma = tested on: SK-MEL-2 melanoma
UACC-257 melanoma = tested on: UACC-257 melanoma
HOP-92 NSCLC = tested on: HOP-92 NSCLC
OVCAR-5 ovarian = tested on: OVCAR-5 ovarian
SK-MEL-5 melanoma = tested on: SK-MEL-5 melanoma
TK-10 renal = tested on: TK-10 renal
SNB-19 CNS = tested on: SNB-19 CNS
ACHN renal = tested on: ACHN renal
U251 CNS = tested on: U251 CNS
HCT-15 colon = tested on: HCT-15 colon
A498 renal = tested on: A498 renal
HCC-2998 colon = tested on: HCC-2998 colon
SNB-78 CNS = tested on: SNB-78 CNS
EKVX NSCLC = tested on: EKVX NSCLC

Measured: TGI

CN(C(=O)c1ccco1)C(=S)N1CCN(c2ccccc2)CC1
not listed: A498 renal | HCC-2998 colon | SNB-78 CNS | EKVX NSCLC
> 100 µM: all other assays above

O=C1C(=O)c2ccccc2C(O)=C1CCCc1ccc(Oc2ccccc2)cc1
32.6 µM: UO-31 renal
15 µM: UACC-62 melanoma
28 µM: SF-539 CNS
10.6 µM: SK-MEL-5 melanoma
41.9 µM: NCI-H460 lung
49.5 µM: HOP-92 NSCLC
64.1 µM: RXF 393 renal
83.4 µM: SK-MEL-2 melanoma
51.8 µM: DMS 273 small cell lung
75.2 µM: HT29 colon
73.2 µM: KM20L2 colon
47.9 µM: HL-60(TB) leukemia | NCI-H226 lung
70.5 µM: CAKI-1 renal
84.3 µM: IGROV1 ovarian
23.2 µM: HOP-62 NSCLC
24.5 µM: M14 melanoma
73.9 µM: SNB-75 CNS
24.9 µM: OVCAR-3 ovarian
37.9 µM: M19-MEL melanoma
79.7 µM: HCT-15 colon
34.2 µM: NCI-H522 lung
74.3 µM: SF-295 CNS | HCC-2998 colon
23.5 µM: DMS 114 small cell lung
66.1 µM: XF 498 CNS
35.4 µM: 786-0 renal
15.3 µM: LOX IMVI melanoma
19.1 µM: NCI-H23 lung
23.9 µM: UACC-257 melanoma
76.5 µM: ACHN renal
32.1 µM: COLO 205 colon
90.5 µM: A498 renal
75 µM: MALME-3M melanoma
97.3 µM: SNB-78 CNS
not listed: A549 NSCLC | HCT-116 colon | HOP-18 NSCLC
> 100 µM: all other assays above
